The structures appear in SMILES notation.

In patent US7741354B2, “Inhibitors of glutaminyl cyclase” (Probiodrug AG, priority 2006, dated 2010) one finds IC50 data, which are given here for 30 compounds.

hQC, sequence (Q16769 29-361): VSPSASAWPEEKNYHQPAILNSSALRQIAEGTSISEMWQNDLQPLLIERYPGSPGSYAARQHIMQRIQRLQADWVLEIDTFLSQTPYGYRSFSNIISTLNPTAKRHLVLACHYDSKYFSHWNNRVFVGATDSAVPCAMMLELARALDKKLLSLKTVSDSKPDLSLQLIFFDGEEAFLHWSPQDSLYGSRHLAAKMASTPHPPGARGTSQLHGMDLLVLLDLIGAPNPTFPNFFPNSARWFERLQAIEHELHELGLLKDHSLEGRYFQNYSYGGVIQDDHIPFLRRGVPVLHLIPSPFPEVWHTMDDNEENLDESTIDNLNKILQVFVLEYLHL

The first assay addresses hQC (Homo sapiens, UniProt Q16769). Briefly: Fluorometric (fluorescent) assay of hQC inhibition, IC50. It counts as biochemical. Particulars: hQC inhibition; read-out: IC50. Here is the method: All compounds were immediately tested regarding their activity as hQC inhibitors.
The purity of the compounds was determined by HPLC-MS. The IC50 value against hQC was measured using the fluorescent assay.
All measurements were performed with a BioAssay Reader HTS-7000Plus for microplates (Perkin Elmer) at 30° C. QC activity was evaluated fluorometrically using H-Gln-βNA. The samples consisted of 0.2 mM fluorogenic substrate, 0.25 U pyroglutamyl aminopeptidase (Unizyme, Horsholm, Denmark) in 0.2 M Tris/HCl, pH 8.0 containing 20 mM EDTA and an appropriately diluted aliquot of QC in a final volume of 250 μl. Excitation/emission wavelengths were 320/410 nm. The assay reactions were initiated by addition of glutaminyl cyclase. QC activity was determined from a standard curve of β-naphthylamine under assay conditions. One unit is defined as the amount of QC catalyzing the formation of 1 μmol pGlu-βNA from H-Gln-βNA per minute under the described conditions.
In a second fluorometric assay, QC was activity determined using H-Gln-AMC as substrate. Reactions were carried out at 30° C. utilizing the NOVOStar reader for microplates (BMG labtechnologies). The samples consisted of varying concentrations of the fluorogenic substrate, 0.1 U pyroglutamyl aminopeptidase (Qiagen) in 0.05 M Tris/HCl, pH 8.0 containing 5 mM EDTA and an appropriately diluted aliquot of QC in a final volume of 250 μl. Excitation/emission wavelengths were 380/460 nm. The assay reactions were initiated by addition of glutaminyl cyclase. QC activity was determined from a standard curve of 7-amino-4-methylcoumarin under assay conditions. The kinetic data were evaluated using GraFit sofware.
For inhibitor testing, the sample composition was the same as described above, except of the putative inhibitory compound added. For a rapid test of QC-inhibition, samples contained 4 mM of the respective inhibitor and a substrate concentration at 1 KM. For detailed investigations of the inhibition and determination of Ki-values, influence of the inhibitor on the auxiliary enzymes was investigated first. […] The inhibitory constant was evaluated by fitting the set of progress curves to the general equation for competitive inhibition using GraFit software.
Usually IC50 stands for the point on the concentration scale where inhibition reaches its midpoint. `CCOC(=O)C1CCCCC1n1nnnc1C(Nc1ccc2[nH]cnc2c1)c1cccc(C(=O)OC)c1` (centres unmarked) [compound 195, 3-{(1H-Benzoimidazol-5-ylamino)-[1-(2-ethoxycarbonyl-cyclohexyl)-1H-tetrazol-5-yl]-methyl}-benzoic acid methyl ester]: the IC50 turned out to be 5.8 µM.
As for `CN(C)c1ccc(C(Nc2ccc3[nH]cnc3c2)c2nnnn2Cc2cccnc2)cc1` (centres unmarked) [compound 115, (1H-Benzoimidazol-5-yl)-[(4-dimethylamino-phenyl)-(1-pyridin-3-ylmethyl-1H-tetrazol-5-yl)-methyl]-amine], the IC50 amounted to 5.8 µM.
In the case of `C/C=C/C=C/C(Nc1ccc2[nH]cnc2c1)c1nnnn1Cc1cccnc1` (centres unmarked) [compound 173, (1H-Benzoimidazol-5-yl)-[(2E,4E)-1-(1-pyridin-3-ylmethyl-1H-tetrazol-5-yl)-hexa-2,4-dienyl]-amine], the IC50 came to 8.5 µM.
As for `CCOC(=O)C1CCCCC1n1nnnc1C(Nc1ccc2[nH]cnc2c1)c1ccccc1OC` (centres unmarked) [compound 183], the IC50 turned out to be 8.5 µM.
With `Fc1ccc2c(C(Nc3ccc4[nH]cnc4c3)c3nnnn3CC3CCCO3)c[nH]c2c1` (centres unmarked) [compound 144, (1H-Benzoimidazol-5-yl)-{(6-fluoro-1H-indol-3-yl)-[1-(tetrahydro-furan-2-ylmethyl)-1H-tetrazol-5-yl]-methyl}-amine], the IC50 worked out at 5.8 µM.
For the compound `Brc1cc(Br)cc(C(Nc2ccc3[nH]cnc3c2)c2nnnn2C2CCCCC2)c1` (centres unmarked) [compound 175, (1H-Benzoimidazol-5-yl)-[(1-cyclohexyl-1H-tetrazol-5-yl)-(3,5-dibromo-phenyl)-methyl]-amine], the IC50 was determined as 3.1 µM.
As for `Brc1cc(Br)cc(C(Nc2ccc3[nH]cnc3c2)c2nnnn2CCC(c2ccccc2)c2ccccc2)c1` (centres unmarked) [compound 188, (1H-Benzoimidazol-5-yl)-{(3,5-dibromo-phenyl)-[1-(3,3-diphenyl-propyl)-1H-tetrazol-5-yl]-methyl}-amine], the IC50 turned out to be 4 µM.
For the compound `Fc1cc(C(Nc2ccc3[nH]cnc3c2)c2nnnn2CCc2cccs2)ccc1Cl` (centres unmarked) [compound 207, (1H-Benzoimidazol-5-yl)-{(4-chloro-3-fluoro-phenyl)-[1-(2-thiophen-2-yl-ethyl)-1H-tetrazol-5-yl]-methyl}-amine], the IC50 came to 4 µM.
Still for that read-out and setting: the same measure for `O=[N+]([O-])c1cc(C(Nc2ccc3[nH]cnc3c2)c2nnnn2Cc2ccccc2Cl)ccc1Cl` (centres unmarked) [compound 148, (1H-Benzoimidazol-5-yl)-[[1-(2-chloro-benzyl)-1H-tetrazol-5-yl]-(4-chloro-3-nitro-phenyl)-methyl]-amine]: 1.3 µM; for `O=C(Cn1nnnc1C(Nc1ccc2[nH]cnc2c1)c1cc(Br)cc(Br)c1)NCCc1c[nH]c2ccccc12` (centres unmarked) [compound 187, 2-{5-[(1H-Benzoimidazol-5-ylamino)-(3,5-dibromo-phenyl)-methyl]-tetrazol-1-yl}-N-[2-(1H-indol-3-yl)-ethyl]-acetamide]: 1.3 µM.
`Cc1cc(C)cc(C(Nc2ccc3[nH]cnc3c2)c2nnnn2CC(=O)N2CCc3ccccc3C2)c1` (centres unmarked) [compound 137, 2-{5-[(1H-Benzoimidazol-5-ylamino)-(3,5-dimethyl-phenyl)-methyl]-tetrazol-1-yl}-1-(3,4-dihydro-1H-isoquinolin-2-yl)-ethanone]: the IC50 is 4.9 µM.
In the case of `CCCOc1cccc(C(Nc2ccc3[nH]cnc3c2)c2nnnn2C2CCCCC2C(=O)OCC)c1` (centres unmarked) [compound 208], the concentration for half-maximal inhibition (IC50) worked out at 2.2 µM.
Regarding `Brc1cc(Br)cc(C(Nc2ccc3[nH]cnc3c2)c2nnnn2-c2ccccc2OCc2ccccc2)c1` (centres unmarked) [compound 180, (1H-Benzoimidazol-5-yl)-[[1-(2-benzyloxy-phenyl)-1H-tetrazol-5-yl]-(3,5-dibromo-phenyl)-methyl]-amine], the IC50 came to 4.9 µM.
For `c1ccc(C(c2ccccc2)n2nnnc2C(Nc2ccc3[nH]cnc3c2)c2cccnc2)cc1` (centres unmarked) [compound 158, [(1-Benzhydryl-1H-tetrazol-5-yl)-pyridin-3-yl-methyl]-(1H-benzoimidazol-5-yl)-amine], the IC50 turned out to be 9.4 µM.
In the case of `Cc1ccc(C(Nc2ccc3[nH]cnc3c2)c2nnnn2CCCN2CCCC2=O)cc1C` (centres unmarked) [compound 164, 1-(3-{5-[(1H-Benzoimidazol-5-ylamino)-(3,4-dimethyl-phenyl)-methyl]-tetrazol-1-yl}-propyl)-pyrrolidin-2-one], the IC50 amounted to 4.9 µM.
On the same count and under the same terms, the same measure for `CCc1ccc(C(Nc2ccc3[nH]cnc3c2)c2nnnn2C2CCCCC2)cc1` (centres unmarked) [compound 198, (1H-Benzoimidazol-5-yl)-[(1-cyclohexyl-1H-tetrazol-5-yl)-(4-ethyl-phenyl)-methyl]-amine]: 4.9 µM.

Staying with this assay, now noted: purified compound from preparative synthesis; fluorescent assay; read-out: IC50 hQC.
As for `C1=COC(C(NCCCn2ccnc2)c2nnnn2C2CCCC2)CC1` (centres unmarked) [Compound 28, [(1-Cyclopentyl-1H-tetrazol-5-yl)-(3,4-dihydro-2H-pyran-2-yl)-methyl]-(3-imidazol-1-yl-propyl)-amine], the half-maximal inhibitory concentration (IC50) was found to be 3.47 µM.
On to `Cc1ccc(O)c(C(NCCCn2ccnc2)c2nnnn2Cc2ccc(Cl)cc2)c1` (centres unmarked) [Compound 3, 2-[[1-(4-Chloro-benzyl)-1H-tetrazol-5-yl]-(3-imidazol-1-yl-propylamino)-methyl]-4-methyl-phenol], for which the IC50 turned out to be 0.584 µM.

Staying with this assay, now noted: read-out: IC50.
For the compound `Cc1ccc(C(Nc2ccc3[nH]cnc3c2)c2nnnn2CC2CCCO2)cc1C` (centres unmarked) [compound 83, (1H-Benzoimidazol-5-yl)-{(3,4-dimethyl-phenyl)-[1-(tetrahydro-furan-2-ylmethyl)-1H-tetrazol-5-yl]-methyl}-amine], the IC50 was 4.9 µM.
For the compound `c1ccc(CC(Nc2ccc3[nH]cnc3c2)c2nnnn2Cc2cccnc2)cc1` (centres unmarked) [compound 73, (1H-Benzoimidazol-5-yl)-[2-phenyl-1-(1-pyridin-3-ylmethyl-1H-tetrazol-5-yl)-ethyl]-amine], the IC50 is 5.8 µM.
In the case of `C=CCn1nnnc1C(NCCCn1ccnc1)c1ccc2cccc(O)c2n1` (centres unmarked) [compound 45, 2-[(1-Allyl-1H-tetrazol-5-yl)-(3-imidazol-1-yl-propylamino)-methyl]-quinolin-8-ol], the IC50 is 4 µM.
As to `Clc1ccc(Cn2nnnc2C(NCCCn2ccnc2)c2ccc(Cl)c(Cl)c2)cc1` (centres unmarked) [compound 1, [[1-(4-Chloro-benzyl)-1H-tetrazol-5-yl]-(3,4-dichloro-phenyl)-methyl]-(3-imidazol-1-yl-propyl)-amine], the IC50 is 2.2 µM.
Take `COCCn1nnnc1C(NCCCn1ccnc1)c1cc(C)ccc1O` (centres unmarked) [compound 39, 2-{(3-Imidazol-1-yl-propylamino)-[1-(2-methoxy-ethyl)-1H-tetrazol-5-yl]-methyl}-4-methyl-phenol]: the IC50 was found to be 8.5 µM.
On to `COC(=O)Cn1nnnc1C(NCCCn1ccnc1)c1ccc2ccccc2n1` (centres unmarked) [compound 55, {5-[(3-Imidazol-1-yl-propylamino)-quinolin-2-yl-methyl]-tetrazol-1-yl}-acetic methyl ester], for which the IC50 stood at 2.2 µM.
Same read-out and setting: the same measure for `C1=COC(C(NCCCn2ccnc2)c2nnnn2C2CCCC2)CC1` (centres unmarked) [Compound 28, [(1-Cyclopentyl-1H-tetrazol-5-yl)-(3,4-dihydro-2H-pyran-2-yl)-methyl]-(3-imidazol-1-yl-propyl)-amine]: 0.4 µM.
Take `CC(C)(C)n1nnnc1C(NCCCn1ccnc1)[C@@H]1CCC=CO1` (stereo in doubt) [compound 61, [(S)-(1-tert-Butyl-1H-tetrazol-5-yl)-3,4-dihydro-2H-pyran-2-yl-methyl]-(3-imidazol-1-yl-propyl)-amine]: the 50% inhibitory concentration (IC50) turned out to be 6.7 µM.
Regarding `Cc1ccc(O)c(C(NCCCn2ccnc2)c2nnnn2Cc2ccc(Cl)cc2)c1` (centres unmarked) [Compound 3, 2-[[1-(4-Chloro-benzyl)-1H-tetrazol-5-yl]-(3-imidazol-1-yl-propylamino)-methyl]-4-methyl-phenol], the 50% inhibitory concentration (IC50) was found to be 0.4 µM.
`Cc1ccc(C(C)CC(Nc2ccc3[nH]cnc3c2)c2nnnn2C2CCCCC2)o1` (centres unmarked) [compound 96, (1H-Benzoimidazol-5-yl)-[1-(1-cyclohexyl-1H-tetrazol-5-yl)-3-(5-methyl-furan-2-yl)-butyl]-amine]: the half-inhibitory concentration (IC50) was 4.9 µM.
The same measure, in the same setting: the same measure for `Cc1ccc2occ(C(Nc3ccc4[nH]cnc4c3)c3nnnn3CC3CCCO3)c(=O)c2c1` (centres unmarked) [compound 86, 3-{(1H-Benzoimidazol-5-ylamino)-[1-(tetrahydro-furan-2-ylmethyl)-1H-tetrazol-5-yl]-methyl}-6-methyl-chromen-4-one]: 9.4 µM.
In the case of `Cc1ccc(C(C)CC(Nc2ccc3[nH]cnc3c2)c2nnnn2CC2CCCO2)o1` (centres unmarked) [compound 111, (1H-Benzoimidazol-5-yl)-{3-(5-methyl-furan-2-yl)-1-[1-(tetrahydro-furan-2-ylmethyl)-1H-tetrazol-5-yl]-butyl}-amine], the IC50 turned out to be 5.8 µM.
Turning to `CCCC(C)C(Nc1ccc2[nH]cnc2c1)c1nnnn1CC(=O)N1CCc2ccccc2C1` (centres unmarked) [compound 98, 2-{5-[1-(1H-Benzoimidazol-5-ylamino)-2-methyl-pentyl]-tetrazol-1-yl}-1-(3,4-dihydro-1H-isoquinolin-2-yl)-ethanone], the IC50 came to 6.7 µM.
For `CC1=CCCC[C@@H]1C(NCCCn1ccnc1)c1nnnn1Cc1ccc(Cl)cc1` (stereo partly drawn) [compound 8, [[1-(4-Chloro-benzyl)-1H-tetrazol-5-yl]-((S)-2-methyl-cyclohex-2-enyl)-methyl]-(3-imidazol-1-yl-propyl)-amine], the IC50 came to 4 µM.
